In patent US8394767B2, “Methods of treating cancer using the calcitonin-gene related peptide (“CGRP”) receptor antagonist CGRP8-37” (University of Rochester, priority 2008, dated 2013):
No end group written: not given here.

Legend:
[1] = test system: CNS1 glioma cells; test: CNS1 glioma tumor cell proliferation assay (CyQuant Direct Proliferation Assay); format: cell-based, rat; conditions: for stimulation of glioma growth over control: hypoxic conditions
Description: FIGS. 3A-B are graphs illustrating that CGRP is a potent stimulator of CNS1 glioma cell growth. CNS1 cells were seeded in 96-well plates, and grown for the indicated time in either normoxic (3A) or hypoxic […] conditions. Media was replaced every 24 hrs with fresh peptide-containing media. On each day, cell number was determined using the CyQuant Direct Proliferation Assay (Invitrogen).
The rat glioma cell line CNS1 was used in a tumor cell proliferation assay. Both AM and CGRP were tested for their ability to stimulate glioma growth. […] More striking was the effect under hypoxic conditions, where CGRP stimulated glioma growth 72-fold over control after 4 days in culture and 10-fold after 5 days in culture (FIG. 3B).

[2] = test system: MDA-MB-231BR breast cancer cells; test: MDA-MB-231BR breast cancer cell growth assay (CyQuant Direct Proliferation Assay); format: cell-based, human; conditions: normoxic conditions, after 4 days in culture
Description: FIGS. 4A-B are graphs illustrating that CGRP is a potent stimulator of MDA-MB231BR breast cancer cell growth. MDA-MB231BR cells were seeded in 96-well plates, and grown for the indicated time in either normoxic (4A) or hypoxic (4B) conditions. Media was replaced every 24 hrs with fresh peptide-containing media. On each day, cell number was determined using the CyQuant Direct Proliferation Assay (Invitrogen).
A similar role for CGRP in the stimulation of breast cancer cell growth was observed using the MDA-MB-231BR breast cancer cell line. […] 81:39-48 (2007); Oxmann et al., “Endoglin Expression in Metastatic Breast Cancer Cells Enhances Their Invasive Phenotype,” Oncogene 27:3567-3575 (2008), each of which is herbey incorporated by reference in its entirety). In this assay, CGRP induced the MDA-MB-231BR breast cancer cells 6-fold over control after 4 days in culture under normoxic conditions (FIGS. 4A-B).

[3] = target: T1, FL-CGRP (Rattus norvegicus, UniProt P01256); test: Immunoprecipitation of FL-CGRP by anti-CGRP antibodies; format: binding; conditions: saturating unlabeled CGRP
T1 sequence (P01256 83-119 limits assumed): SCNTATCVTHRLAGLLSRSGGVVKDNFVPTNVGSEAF
Description: FIGS. 10A-B illustrate the immunoprecipitation of FL-CGRP using anti-CGRP antibodies JH84 and MU33. FIG. 10B schematically illustrates the binding sites of these antibodies.
To be useful for development of non-radioactive competition assays, which will be useful for quantifying CGRP in tissues and cells, the FL-label at lysine^24 cannot inhibit anti-CGRP antibody binding. […] The binding sites for JH84 and MU33 on CGRP are illustrated schematically in FIG. 10B.

[4] = test system: anti-CGRP antibody JH84; test: Fluorescent competition assay with FL-CGRP tracer on immobilized antibody; format: binding; conditions: JH84 bound to 96-well plate, 100 pM FL-CGRP as tracer
Description: FIG. 11 is a graph illustrating that FL-CGRP can be used for a competition assay to determine CGRP concentrations. Affinity-purified JH84 antibody (100 ng/well) was linked to wells in a 96-well plate, and incubated with 100 pM FL-CGRP and increasing concentrations of unlabeled CGRP. Unbound peptide was washed from well, and fluorescence detected in a Perkin Elmer plate reader.
FL-CGRP was then used to develop a fluorescent competition assay. Affinity-purified anti-CGRP antibody JH84 was bound to the wells of a 96-well plate and […] FL-CGRP was incubated as tracer with either unlabeled CGRP, the homologous neuropeptide adrenomedullin (AM), or the CGRP antagonist CGRP(8-37). […] Thus, the antagonist could not totally compete with FL-CGRP for binding to the antibodies.

[5] = test system: CGRP receptors (CLR-cherry and RAMP1); test: FL-CGRP binding to COS1 cells transfected with CLR-cherry and RAMP1 (fluorescence microscopy)
Description: FIG. 12 is a panel of microscopy images illustrating that FL-CGRP specifically binds to cells expressing CLR and RAMP1. COS1 cells were transfected with CLR-cherry and RAMP1. 30 nM FL-CGRP was incubated with transfected cells for 30 minutes, and cells were washed 2× with PBS and visualized by phase-contrast microscopy (left panel), and fluorescent microscopy to identify cells expressing the CLR-cherry fusion protein (center panel) and cells that bound FL-CGRP (right panel).
COS1 cells were transfected with a fusion protein containing CLR-fused at its carboxyl terminus to the fluorescent protein cherry. CLR-cherry and RAMP1 were co-transfected into COS1 cells, and 48 hours post-transfection cells were incubated with FL-CGRP, and imaged using phase contrast microscopy (FIG. 12, left panel) as well as fluorescence microscopy for cherry (580 nm) (FIG. 12, center panel) and FL-CGRP (488 nm) (FIG. 12, right panel).

[6] = target: T2, CGRP receptor (Mus musculus, UniProt O35427); test: CGRP receptor signaling (cAMP) in NIH3T3 cells expressing L2/EGFP; format: cell-based; conditions: L2/EGFP expressed in NIH3T3 cells, which endogenously express CGRP receptors
T2 construct: NIH3T3 cells, which endogenously express CGRP receptors; endogenous in cells; host or cells: NIH3T3
Description: (§1) FIG. 7A is a schematic illustration showing that the second intracellular loop of CLR was cloned as a fusion protein with enhanced green fluorescent protein (EGFP). […] The immunoprecipitate was separated by SDS-PAGE and probed with an antibody directed against RCP. RCP co-immunoprecipitated with the L2/EGFP fusion protein (lanes 5, 6) indicating an interaction between RCP and the second intracellular loop of CLR.
(§2) A fusion protein was constructed containing the second intracellular loop (“L2” or elsewhere designated “cpd2”) of CLR and the enhanced green fluorescent protein (L2/EGFP) (FIG. 7A). RCP co-immunoprecipitated with the L2/EGFP fusion protein, indicating a direct interaction between the two proteins (FIG. 7B). […] This confirmed the belief that over-expression of L2/EGFP pulls most of the available RCP away from the CGRP receptor complex, and that the CLR/RAMP1 complex is unable to signal. Thus, the site of interaction between the second intracellular loop of CLR and RCP represents a novel control site for signaling at CLR, and represents a candidate for development of anti-proliferative drugs to combat tumor growth.

[7] = target: T3, RCP (Mus musculus, UniProt O35427); test: Co-immunoprecipitation of RCP with L2/EGFP in NIH3T3 cells; format: binding; conditions: L2/EGFP transfected into NIH3T3 cells, GFP immunoprecipitation, probed with anti-RCP
T3 construct: endogenous in cells; host or cells: NIH3T3
Description: as §1, §2

[8] = test system: breast cancer lines (human MDA-MB-231 and MDA-MB-231 BR, mouse 4T1 and TG1); test: Growth of breast cancer lines constitutively expressing L2/EGFP (FACS-purified); format: cell-based; conditions: constitutive promoter
Description: To determine if the dominant-negative L2/EGFP fusion protein could inhibit CLR function in breast cancer cells, four breast cancer lines (human MDA-MB-231 and MDA-MB-231 BR lines and mouse 4T1 and TG1 lines) were transfected with L2/EGFP or GFP alone. MDA-MB231 and MDA-MB-231BR cells that constitutively express GFP were generated as previously described (Evans et al., “CGRP-RCP, a Novel Protein Required for Signal Transduction at Calcitonin Gene-Related Peptide and Adrenomedullin Receptors,” J Biol Chem 275(40):31438-43 (2000); Prado et al., “The Role of the CGRP-Receptor Component Protein (RCP) in Adrenomedullin Receptor Signal Transduction,” Peptides 22(11):1773-81 (2001); and Rosenblatt et al., “Endoproteolysis at Tetrabasic Amino Acid Sites in Procalcitonin Gene-Related Peptide by Pituitary Cell Lines” Peptides 18(4):567-76 (1997), which are hereby incorporated by reference in their entirety). However, when a constitutive promoter was used to express L2/EGFP in these tumor cells, pure fluorescent colonies could not be isolated because, it is believed, the constitutive expression of L2/EGFP was too effective at inhibiting tumor growth.

[9] = test system: CNS1 glioma cells; test: Growth of CNS1 glioma cells constitutively expressing L2/EGFP (FACS-purified); format: cell-based, rat; conditions: constitutive expression
Description: To examine the role of CLR in glioma proliferation, inhibition of CLR via expression of L2/EGFP was attempted. Although CNS1 cells that constitutively express GFP were generated using published techniques (Evans et al., “CGRP-RCP, A Novel Protein Required for Signal Transduction At Calcitonin Gene-Related Peptide and Adrenomedullin Receptors,” J Biol Chem 275(40):31438-43 (2000); Prado et al., “The Role of the CGRP-Receptor Component Protein (RCP) in Adrenomedullin Receptor Signal Transduction,” Peptides 22(11):1773-81 (2001); Rosenblatt et al., “Endoproteolysis At Tetrabasic Amino Acid Sites in Procalcitonin Gene-Related Peptide by Pituitary Cell Lines,” Peptides 18(4):567-76 (1997), which are hereby incorporated by reference in their entirety), upon transfection of the constitutively expressed L2/EGFP construct, pure fluorescent colonies could not be isolated.

[10] = test system: CGRP receptor; conditions: oocyte-CFTR assay, Luebke et al. 1996; cited from earlier work
[11] = test system: rodent receptors over human receptors; conditions: cited from earlier work

T2 sequence (O35427 whole entry): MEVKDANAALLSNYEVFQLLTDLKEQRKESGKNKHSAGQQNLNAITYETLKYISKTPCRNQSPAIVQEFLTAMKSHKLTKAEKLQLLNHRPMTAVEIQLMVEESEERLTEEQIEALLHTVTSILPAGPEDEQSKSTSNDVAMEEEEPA
T3 sequence (O35427 whole entry): as above

For “CGRP: 37 amino acid neuropeptide derived from calcitonin-related polypeptide alpha; agonist of the CGRP receptor”, the “stimulation of glioma growth over control” value ([1]; after 4 days in culture) was 72 fold, the “stimulation of glioma growth over control” value ([1]; after 5 days in culture) was 10 fold and the “increase of CNS1 cell growth over control” value ([1]; normoxic conditions, after 5 days in culture) was 11 fold. The “induction of MDA-MB-231BR breast cancer cells over control” value [2] was 6 fold, the “effect on immunoprecipitation of FL-CGRP by JH84 and MU33” value [3] was “blocked” and the “competition with FL-CGRP for binding to immobilized antibody” value (“competition with FL-CGRP for binding” below) [4] was “effectively competed”.
For “FL-CGRP: rat CGRP with a single Alexa488 dye molecule attached to the lysine24 residue”, the “binding to CGRP receptors” value [5] was “high-affinity”, the “FL-CGRP binding to cells” value ([5]; COS1 cells co-transfected with CLR-cherry and RAMP1, 48 hours post-transfection, 30 nM FL-CGRP) was “only observed to bind to cells that were expressing CLR-cherry” and the “FL-CGRP binding to cells” value ([5]; untransfected cells) was “No FL-CGRP binding was detected”.
For “AM: the homologous neuropeptide adrenomedullin”, the “competition with FL-CGRP for binding” value [4] was “did not compete”.
In the case of “L2/EGFP: fusion protein of the second intracellular loop of CLR and enhanced green fluorescent protein; dominant-negative inhibitor of CLR signaling (LIVVAVFAEKQHLMWYYFLGWGFPLIPACIH; also: fusion protein with EGFP)”, the “signaling at the CGRP receptor as measured by cAMP” value [6] is reported as “inhibited signaling at the CGRP receptor”, the “co-immunoprecipitation with RCP” value [7] is reported as “co-immunoprecipitated” and the “growth of pure populations of cells expressing the dominant-negative inhibitor” value [8] is reported as “would not grow”. The “growth of pure populations of cells expressing the dominant-negative inhibitor” value [9] was “would not grow”.
For “CGRP8-37: peptide CGRP antagonist consisting of residues 8-37 of SEQ ID NO: 2”, the “competition with FL-CGRP for binding” value [4] was “partially competed”.
For “SEQ ID NO:9: antisense DNA oligonucleotide TGCTCACTGTGTAAGCCTTAAATCCATCAAG (DNA, backbone not given here)”, the CGRP receptor function [10] is listed as “inhibit CGRP receptor function”.
In the case of `NCCCC[C@H](NC(=O)[C@@H](Cc1cc(Br)c(O)c(Br)c1)NC(=O)N1CCC(N2Cc3ccccc3NC2=O)CC1)C(=O)N1CCN(c2ccncc2)CC1` [BIB4096, N-((1R)-2-(((1S)-5-amino-1-((4-(pyridin-4-yl)piperazin-1-yl)carbonyl)pentyl)amino)-1-(3,5-dibromo-4-hydroxybenzyl)-2-oxoethyl)-4-(2-oxo-1,4-dihydroquinazolin-3(2H)-yl)piperidine-1-carboxamide], the “lower affinity for rodent receptors over human receptors” value [11] is given as 100-1000 ×.
